Source: ChEMBL document CHEMBL1201862, “PubChem BioAssay data set” (2004)
Activity calls are given as the source filed them.

Columns and labels:
[1] = target: T1, Estrogen receptor (Homo sapiens, UniProt P03372);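 note: potency for inhibiting coactivator peptide recruitment to the receptor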
T1 sequence (P03372 whole entry): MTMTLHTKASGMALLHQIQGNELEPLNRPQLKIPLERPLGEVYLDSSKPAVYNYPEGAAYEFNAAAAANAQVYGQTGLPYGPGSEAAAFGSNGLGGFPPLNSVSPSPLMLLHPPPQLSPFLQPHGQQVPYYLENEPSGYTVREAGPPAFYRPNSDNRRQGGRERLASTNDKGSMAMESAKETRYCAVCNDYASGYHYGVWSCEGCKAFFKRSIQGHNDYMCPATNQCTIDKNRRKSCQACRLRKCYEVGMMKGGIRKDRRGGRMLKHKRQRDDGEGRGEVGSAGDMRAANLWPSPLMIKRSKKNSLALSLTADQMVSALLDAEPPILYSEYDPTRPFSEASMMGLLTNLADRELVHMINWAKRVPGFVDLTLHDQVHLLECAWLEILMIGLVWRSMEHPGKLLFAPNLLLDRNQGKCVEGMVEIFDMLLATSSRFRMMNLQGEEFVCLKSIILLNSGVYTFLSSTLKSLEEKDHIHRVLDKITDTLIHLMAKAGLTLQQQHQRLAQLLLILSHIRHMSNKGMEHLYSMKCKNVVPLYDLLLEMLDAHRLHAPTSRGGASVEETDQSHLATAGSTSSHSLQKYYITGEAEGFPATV

[2] = cells; format: functional
[3] = test system: H4; assay: Luminescence Cell-Based Dose Response HTS to Identify Activators of 5'UTR Stem-Loop Driven Prion Protein mRNA Translation in H4 Neuroglioblastoma Cells. [Related pubchem assays: 1829 (Project Summary), 1814 (Primary HTS)]; format: functional; settings: Homo sapiens
[4] = Luminescence Cell-Based Dose Confirmation HTS to Identify Activators of 5'UTR Stem-Loop Driven Alpha-Synuclein mRNA Translation in H4 Neuroglioblastoma Cells. [Related pubchem assays: 1829 (Project Summary), 1814 (Primary HTS)]; format: functional
[5] = Luminescence Cell-Based Dose Response HTS to Identify Activators of Luciferase Translation or Activity in H4 […] Cells. [Related pubchem assays: 1829 (Project Summary), 1814 (Primary HTS)]; format: functional
[6] = target: Large T antigen (Simian virus 40, UniProt P03070); format: functional, Betapolyomavirus macacae;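 note: Confirmatory-stage PubChem screen for compounds that inhibit SV40 T antigen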
[7] = target: Genome polyprotein (dengue virus type 2, UniProt P29990); assay: Dengue-2 NS5 methyltransferase inhibitors, primary screen, biochemical, confirmation dose response (AID 588689); format: functional
[8] = test system: SN12K1; assay: cells; format: functional; settings: Homo sapiens
[9] = target: FAD-linked sulfhydryl oxidase ALR (Homo sapiens, UniProt P55789); assay: inhibitors of human ALR sulfhydryl oxidase, dose response, biochemical, H2O2 detection, luminescence, cherry-pick (AID 493248)
[10] = THP-1 cell cytotoxicity, dose response, cytotoxicity control for non-replicating M. tuberculosis project (AID 489025); format: functional
[11] = test system: Streptococcus; assay: Group A Streptococcus viability loss, dose response, counter-screen for streptokinase expression inhibitor project, luminescence, BacTiterGlo (AID 1915); format: functional, organism-based;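 note: potency for reduction of bacterial viability or growth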
[12] = target: T2, Streptokinase A (Streptococcus pyogenes serotype M1, UniProt P10520); assay: S. pyogenes streptokinase expression inhibitors, potency, dose response, plasminogen activation absorbance, OD405 (AID 1914); format: functional, Streptococcus pyogenes M1 GAS;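 note: secreted streptokinase activity via plasminogen activation per viability signal from cell pellet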
T2 sequence (P10520 whole entry): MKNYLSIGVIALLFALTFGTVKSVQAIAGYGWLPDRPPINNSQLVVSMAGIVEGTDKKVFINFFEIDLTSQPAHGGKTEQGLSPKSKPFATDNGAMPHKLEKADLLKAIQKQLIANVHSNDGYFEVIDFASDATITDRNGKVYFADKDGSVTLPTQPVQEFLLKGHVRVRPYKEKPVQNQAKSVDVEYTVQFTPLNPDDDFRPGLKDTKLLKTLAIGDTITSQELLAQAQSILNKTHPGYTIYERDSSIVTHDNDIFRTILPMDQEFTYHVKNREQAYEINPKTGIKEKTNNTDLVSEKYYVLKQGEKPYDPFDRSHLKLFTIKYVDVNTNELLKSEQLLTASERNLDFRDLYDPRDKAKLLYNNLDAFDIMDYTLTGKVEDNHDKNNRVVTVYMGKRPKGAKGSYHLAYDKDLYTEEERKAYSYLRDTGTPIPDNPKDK

[13] = test system: Streptococcus sp. 'group A'; assay: growth inhibition of control SK(-) GAS strain, dose response, counter-screen for streptokinase expression inhibitor project, luminescence, kanamycin, BacTiterGlo, confirmation (AID 1900); format: functional, organism-based

Genome polyprotein, sequence (P29990 2492-3391 limits assumed): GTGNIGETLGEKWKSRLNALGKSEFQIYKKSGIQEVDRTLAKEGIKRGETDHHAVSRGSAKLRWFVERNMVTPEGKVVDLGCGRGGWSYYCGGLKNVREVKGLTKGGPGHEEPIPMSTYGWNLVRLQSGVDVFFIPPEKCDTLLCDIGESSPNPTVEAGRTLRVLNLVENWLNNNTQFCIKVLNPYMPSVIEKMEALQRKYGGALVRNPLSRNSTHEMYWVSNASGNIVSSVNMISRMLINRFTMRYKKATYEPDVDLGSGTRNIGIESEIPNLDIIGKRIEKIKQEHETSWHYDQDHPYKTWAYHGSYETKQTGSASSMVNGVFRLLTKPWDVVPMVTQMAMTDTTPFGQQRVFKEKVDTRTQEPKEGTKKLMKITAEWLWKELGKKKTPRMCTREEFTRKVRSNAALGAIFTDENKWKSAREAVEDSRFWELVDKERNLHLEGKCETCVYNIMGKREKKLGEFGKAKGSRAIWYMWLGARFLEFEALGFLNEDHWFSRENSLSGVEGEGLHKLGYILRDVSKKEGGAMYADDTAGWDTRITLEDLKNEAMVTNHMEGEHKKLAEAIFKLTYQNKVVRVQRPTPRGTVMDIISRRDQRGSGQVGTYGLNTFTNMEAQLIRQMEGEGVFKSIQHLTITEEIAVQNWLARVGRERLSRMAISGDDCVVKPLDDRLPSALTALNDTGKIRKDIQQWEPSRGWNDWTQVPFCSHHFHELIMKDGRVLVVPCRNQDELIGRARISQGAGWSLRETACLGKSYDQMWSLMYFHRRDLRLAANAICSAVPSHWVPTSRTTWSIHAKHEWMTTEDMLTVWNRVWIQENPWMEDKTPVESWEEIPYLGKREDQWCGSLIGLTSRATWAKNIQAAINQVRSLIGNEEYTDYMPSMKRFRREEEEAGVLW
Large T antigen, sequence (P03070 whole entry): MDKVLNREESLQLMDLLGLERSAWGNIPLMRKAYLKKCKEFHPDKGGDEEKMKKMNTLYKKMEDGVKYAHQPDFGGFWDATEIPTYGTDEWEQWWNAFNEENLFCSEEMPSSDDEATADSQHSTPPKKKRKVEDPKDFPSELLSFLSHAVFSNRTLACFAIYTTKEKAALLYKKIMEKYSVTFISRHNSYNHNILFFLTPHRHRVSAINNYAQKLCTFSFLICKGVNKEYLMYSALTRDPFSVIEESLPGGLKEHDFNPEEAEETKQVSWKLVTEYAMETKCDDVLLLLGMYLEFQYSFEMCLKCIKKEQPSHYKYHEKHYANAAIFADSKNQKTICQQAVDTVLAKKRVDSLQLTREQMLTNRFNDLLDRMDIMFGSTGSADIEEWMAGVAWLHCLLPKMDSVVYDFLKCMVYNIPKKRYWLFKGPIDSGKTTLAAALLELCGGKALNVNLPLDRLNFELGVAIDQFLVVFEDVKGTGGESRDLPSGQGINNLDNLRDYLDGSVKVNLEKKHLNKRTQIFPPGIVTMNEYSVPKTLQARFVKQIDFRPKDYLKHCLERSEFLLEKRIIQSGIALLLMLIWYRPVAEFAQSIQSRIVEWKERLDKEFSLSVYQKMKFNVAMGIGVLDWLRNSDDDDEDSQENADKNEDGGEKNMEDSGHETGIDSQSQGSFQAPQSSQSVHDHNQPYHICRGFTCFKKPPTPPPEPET
FAD-linked sulfhydryl oxidase ALR, sequence (P55789 whole entry): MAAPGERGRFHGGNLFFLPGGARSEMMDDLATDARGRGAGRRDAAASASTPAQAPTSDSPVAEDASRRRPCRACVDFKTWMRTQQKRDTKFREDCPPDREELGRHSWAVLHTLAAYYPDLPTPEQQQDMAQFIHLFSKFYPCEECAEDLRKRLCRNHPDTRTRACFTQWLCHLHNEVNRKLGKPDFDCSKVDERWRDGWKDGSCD

SMILES | EC50 [3] | EC50 [4] | EC50 [5] | also measured
COC(=O)C1=C(O)/C(=C\c2ccc(CNC(=O)C(=O)Nc3ccc(C)c(C)c3)o2)N=C1C | – | – | – | IC50 [1]: 19.6 µM (active)
Cc1ccc(CCC(=O)Nc2cc(Cl)ccc2Cl)o1 | – | – | – | IC50 [2]: 42.8 µM (active)
CSCCC1NC(=O)NC1=O (stereo not given) | – | – | – | IC50 [1]: > 50 µM (not active)
Cc1cccn2c(CN(C)CCC3CCCCO3)c(C(=O)N3CCCCC3)nc12 (stereo not given) | > 120 µM (not active) | 19.9 µM (active) | > 120 µM (not active) | –
COC(=O)c1ccc(/N=C/c2c(-c3ccccc3)n[nH]c2O)cc1 | > 120 µM (not active) | > 120 µM (not active) | > 120 µM (not active) | –
O=C(O)c1cc(S(=O)(=O)O)cc(Nc2c3ccccc3nc3ccccc23)c1O | – | – | – | IC50 [6]: 20.2 µM (active)
COc1cc2cc(C(c3nnnn3C3CCCC3)N3CCc4ccccc43)c(=O)[nH]c2cc1OC (stereo not given) | – | – | – | IC50 [1]: 21.9 µM (active)
O=[N+]([O-])c1ccc(Sc2n[nH]c(-c3ccccc3)n2)nc1 | > 120 µM (not active) | 5.81 µM (active) | 93.9 µM (active) | –
COc1cc(/C=c2\sc3nc(-c4ccncc4)nn3c2=O)ccc1OC(C)=O | – | – | – | IC50 [1]: 31.7 µM (not active)
Cn1c(=O)c2c(nc(NCC3CCCC(CN)C3)n2Cc2ccc(Cl)cc2Cl)n(C)c1=O (stereo not given) | > 120 µM (not active) | > 120 µM (not active) | > 120 µM (not active) | –
CC12CN3CC(C)(CN(C1)C3c1ccc([N+](=O)[O-])o1)C2 (stereo not given) | – | – | – | IC50 [2]: 11.1 µM (active)
CC1(C)CC(=O)C(C(c2ccc(Br)cc2)C2C(=O)CC(C)(C)CC2=O)C(=O)C1 | – | – | – | IC50 [7]: 79.3 µM (active)
CN(C)CCNC(=O)c1cc([N+](=O)[O-])cc2ccc(-c3ccccc3)nc12 | – | – | – | GI50 [8]: 3.04 µM (inactive)
O=C(COn1nnc2ccccc21)NCC1CCCCC1 | 31.9 µM (inconclusive) | 5.83 µM (active) | 68.8 µM (active) | –
C=CCOc1c(Br)cc(/C=C2/C(=O)ON=C2C)cc1OC | – | – | – | IC50 [7]: > 100 µM (active)
CCN(CC)c1ccc(NC(=O)c2ccccc2F)cc1 | – | – | – | IC50 [6]: 18.8 µM (active)
COc1ccc2nc(NC3=NCCC3)sc2c1 | 8.52 µM (active) | 37.7 µM (active) | 22.1 µM (active) | –
Cc1ccc(S(=O)(=O)N2CCN(CC(=O)N/N=C\c3ccc(O)c(O)c3)CC2)cc1 | – | – | – | IC50 [6]: 9.98 µM (active); AC50 [9]: 2.26 µM (active)
COc1ccc2cc(C(=O)C3CCCN(Cc4cccc(C)n4)C3)ccc2c1 (stereo not given) | – | – | – | CC50 [10]: > 40 µM (active); EC50 [11]: > 150 µM (not active); EC50 [12]: > 150 µM (not active); EC50 [13]: 11.1 µM (active); IC50 [2]: 3 µM (active)
COc1ccccc1-c1cc(C(=O)Nc2sc3c(c2C#N)CCC(C)C3)c2ccccc2n1 (stereo not given) | – | – | – | IC50 [7]: 97.8 µM (active)
Cc1ccc(NC(=O)C2OCCc3ccccc32)cc1 (stereo not given) | 31.4 µM (active) | 14.7 µM (active) | 12 µM (active) | –
